“Also recorded” adds a separate entry of the source. Like-named read-outs stand apart in the source and are kept apart here.
Columns and labels:
[1] = Plasma concentrations of TAM, TOR and their metabolites by LC–MS/MS (screening study); settings: TOR 120 mg for up to 6 months
[2] = Hot flush grade (CTCAE v3.0) in the screening study; assay type: in vivo, breast cancer patients; settings: screening study
Source text: (§1) We obtained data on compliance and the grade of hot flush as defined by the Common Terminology Criteria for Adverse Events v3.0.

[3] = TOR versus TAM, seven randomized-controlled trials; cited from earlier work
[4] = Total activity: sum of plasma concentrations of each active metabolite adjusted by in vitro activity; assay type: in vivo, breast cancer patients
Method: Blood samples for PK analysis were obtained from patients who had good compliance with taking medications 2–4 h after taking anti-estrogens. […] The interday variability and intraday variability for all compounds are within 15%.

[5] = Source text: Written informed consent was obtained from all the participants included in the study. The patient enrolment period for the screening study started on February 1, 2009 and ended on July 31, 2012.
as §1
The p value was not calculated if there were no events.

[6] = weighting of plasma concentration; cited from earlier work

## CN(C)CCOc1ccc(/C(=C(/CCCl)c2ccccc2)c2ccccc2)cc1 [TOR, toremifene]
[1]
  Concentration on continuing the same dose: remained constant
[2]; TOR 40 mg
  Hot flush grade 0, % of patients: 57.4%
  Hot flush grade 0, patients: 35
  Hot flush grade 1, % of patients: 32.8%
  Hot flush grade 1, patients: 20
  Hot flush grade 2, % of patients: 9.8%
  Hot flush grade 2, patients: 6
  Hot flush grade 3, % of patients: 0.0%
  Hot flush grade 3, patients: 0
[2]; TOR 120 mg
  Hot flush grade 0, % of patients: 88.9%
  Hot flush grade 0, patients: 24
  Hot flush grade 1, % of patients: 11.1%
  Hot flush grade 1, patients: 3
  Hot flush grade 2, % of patients: 0.0%
  Hot flush grade 2, patients: 0
  Hot flush grade 3, % of patients: 0.0%
  Hot flush grade 3, patients: 0
[2]; patients taking TOR 120 mg
  Grade and frequency of hot flushes compared with TAM 20 mg or TOR 40 mg: lower grade and frequency of hot flushes
[3]
  Efficacy in patients with advanced breast cancer: equally effective
[4]; TOR 120 mg for up to 6 months, trend for decrease after 24 weeks
  Total activity on continuing the same dose: remained constant
[4]; TOR from 40 to 120 mg, p < 0.01
  Change of total activity after increasing the dose: increased significantly; also recorded: increased by at least twofold
[5]; TOR 40 mg
  Cre elevation All grade, % of patients: 36.4%
  Cre elevation All grade, patients: 4
  Cre elevation ≧ G2, % of patients: 0 (0) %
  Cre elevation ≧ G2, patients: 0 (0)
  GOT elevation All grade, % of patients: 0 (0) %
  GOT elevation All grade, patients: 0 (0)
  GOT elevation ≧ G2, % of patients: 0 (0) %
  GOT elevation ≧ G2, patients: 0 (0)
  GPT elevation All grade, % of patients: 0 (0) %
  GPT elevation All grade, patients: 0 (0)
  GPT elevation ≧ G2, % of patients: 0 (0) %
  GPT elevation ≧ G2, patients: 0 (0)
  Hot flush G0, % of patients: 100%
  Hot flush G0, patients: 14
  Hot flush G1, % of patients: 0 (0) %
  Hot flush G1, patients: 0 (0)
  Hot flush G2, % of patients: 0 (0) %
  Hot flush G2, patients: 0 (0)
  Hyperglycemia All grade, % of patients: 0 (0) %
  Hyperglycemia All grade, patients: 0 (0)
  Hyperglycemia ≧ G2, % of patients: 0 (0) %
  Hyperglycemia ≧ G2, patients: 0 (0)
  LDH elevation All grade, % of patients: 0 (0) %
  LDH elevation All grade, patients: 0 (0)
  LDH elevation ≧ G2, % of patients: 0 (0) %
  LDH elevation ≧ G2, patients: 0 (0)
  LDL elevation All grade, % of patients: 0 (0) %
  LDL elevation All grade, patients: 0 (0)
  LDL elevation ≧ G2, % of patients: 0 (0) %
  LDL elevation ≧ G2, patients: 0 (0)
  Low PLT All grade, % of patients: 0 (0) %
  Low PLT All grade, patients: 0 (0)
  Low PLT ≧ G2, % of patients: 0 (0) %
  Low PLT ≧ G2, patients: 0 (0)
  Low WBC All grade, % of patients: 11.1%
  Low WBC All grade, patients: 1
  Low WBC ≧ G2, % of patients: 11.1%
  Low WBC ≧ G2, patients: 1
  T. Bil elevation All grade, % of patients: 0 (0) %
  T. Bil elevation All grade, patients: 0 (0)
  T. Bil elevation ≧ G2, % of patients: 0 (0) %
  T. Bil elevation ≧ G2, patients: 0 (0)
  TG elevation All grade, % of patients: 12.5%
  TG elevation All grade, patients: 1
  TG elevation ≧ G2, % of patients: 0 (0) %
  TG elevation ≧ G2, patients: 0 (0)
  Weight, max: 73.4 kg
  Weight, mean: 53.2 kg
  Weight, median: 51.7 kg
  Weight, min: 45.0 kg
[5]; TOR 120 mg (1)
  Cre elevation All grade, % of patients: 27.3%
  Cre elevation All grade, patients: 3
  Cre elevation ≧ G2, % of patients: 0 (0) %
  Cre elevation ≧ G2, patients: 0 (0)
  GOT elevation All grade, % of patients: 16.7%
  GOT elevation All grade, patients: 2
  GOT elevation ≧ G2, % of patients: 8.3%
  GOT elevation ≧ G2, patients: 1
  GPT elevation All grade, % of patients: 8.3%
  GPT elevation All grade, patients: 1
  GPT elevation ≧ G2, % of patients: 8.3%
  GPT elevation ≧ G2, patients: 1
  Hot flush G0, % of patients: 69.2%
  Hot flush G0, patients: 9
  Hot flush G1, % of patients: 15.4%
  Hot flush G1, patients: 2
  Hot flush G2, % of patients: 15.4%
  Hot flush G2, patients: 2
  Hyperglycemia All grade, % of patients: 0 (0) %
  Hyperglycemia All grade, patients: 0 (0)
  Hyperglycemia ≧ G2, % of patients: 0 (0) %
  Hyperglycemia ≧ G2, patients: 0 (0)
  LDH elevation All grade, % of patients: 7.1%
  LDH elevation All grade, patients: 1
  LDH elevation ≧ G2, % of patients: 7.1%
  LDH elevation ≧ G2, patients: 1
  LDL elevation All grade, % of patients: 14.3%
  LDL elevation All grade, patients: 1
  LDL elevation ≧ G2, % of patients: 0 (0) %
  LDL elevation ≧ G2, patients: 0 (0)
  Low PLT All grade, % of patients: 0 (0) %
  Low PLT All grade, patients: 0 (0)
  Low PLT ≧ G2, % of patients: 0 (0) %
  Low PLT ≧ G2, patients: 0 (0)
  Low WBC All grade, % of patients: 11.1%
  Low WBC All grade, patients: 1
  Low WBC ≧ G2, % of patients: 11.1%
  Low WBC ≧ G2, patients: 1
  T. Bil elevation All grade, % of patients: 0 (0) %
  T. Bil elevation All grade, patients: 0 (0)
  T. Bil elevation ≧ G2, % of patients: 0 (0) %
  T. Bil elevation ≧ G2, patients: 0 (0)
  TG elevation All grade, % of patients: 0 (0) %
  TG elevation All grade, patients: 0 (0)
  TG elevation ≧ G2, % of patients: 0 (0) %
  TG elevation ≧ G2, patients: 0 (0)
  Weight, max: 73.5 kg
  Weight, mean: 53.4 kg
  Weight, median: 51.0 kg
  Weight, min: 45.0 kg
[5]; TOR 120 mg (2)
  Cre elevation All grade, % of patients: 16.7%
  Cre elevation All grade, patients: 2
  Cre elevation ≧ G2, % of patients: 0 (0) %
  Cre elevation ≧ G2, patients: 0 (0)
  GOT elevation All grade, % of patients: 8.3%
  GOT elevation All grade, patients: 1
  GOT elevation ≧ G2, % of patients: 0 (0) %
  GOT elevation ≧ G2, patients: 0 (0)
  GPT elevation All grade, % of patients: 8.3%
  GPT elevation All grade, patients: 1
  GPT elevation ≧ G2, % of patients: 0 (0) %
  GPT elevation ≧ G2, patients: 0 (0)
  Hot flush G0, % of patients: 75.0%
  Hot flush G0, patients: 9
  Hot flush G1, % of patients: 8.3%
  Hot flush G1, patients: 1
  Hot flush G2, % of patients: 16.7%
  Hot flush G2, patients: 2
  Hyperglycemia All grade, % of patients: 7.1%
  Hyperglycemia All grade, patients: 1
  Hyperglycemia ≧ G2, % of patients: 7.1%
  Hyperglycemia ≧ G2, patients: 1
  LDH elevation All grade, % of patients: 0 (0) %
  LDH elevation All grade, patients: 0 (0)
  LDH elevation ≧ G2, % of patients: 0 (0) %
  LDH elevation ≧ G2, patients: 0 (0)
  LDL elevation All grade, % of patients: 10.0%
  LDL elevation All grade, patients: 1
  LDL elevation ≧ G2, % of patients: 0 (0) %
  LDL elevation ≧ G2, patients: 0 (0)
  Low PLT All grade, % of patients: 0 (0) %
  Low PLT All grade, patients: 0 (0)
  Low PLT ≧ G2, % of patients: 0 (0) %
  Low PLT ≧ G2, patients: 0 (0)
  Low WBC All grade, % of patients: 8.3%
  Low WBC All grade, patients: 1
  Low WBC ≧ G2, % of patients: 8.3%
  Low WBC ≧ G2, patients: 1
  T. Bil elevation All grade, % of patients: 0 (0) %
  T. Bil elevation All grade, patients: 0 (0)
  T. Bil elevation ≧ G2, % of patients: 0 (0) %
  T. Bil elevation ≧ G2, patients: 0 (0)
  TG elevation All grade, % of patients: 0 (0) %
  TG elevation All grade, patients: 0 (0)
  TG elevation ≧ G2, % of patients: 0 (0) %
  TG elevation ≧ G2, patients: 0 (0)
  Weight, max: 73.0 kg
  Weight, mean: 53.6 kg
  Weight, median: 51.1 kg
  Weight, min: 46.0 kg
[5]; TOR 40 to 120 mg
  Body weight during dose escalation: remained stable
  Hot flushes and GOT/GPT elevation with an increase in the dose: only a few patients developed hot flushes and GOT/GPT elevation
[6]
  In vitro activity factor in the total activity of TOR (TOR = 1.0): 1.0

From PMC6694038, “Pharmacogenomic–pharmacokinetic study of selective estrogen-receptor modulators with intra-patient dose escalation in breast cancer” (Breast Cancer (Tokyo, Japan), 2019)
